Test results taken from PubChem BioAssay AID1259407 (Chemical Carcinogenesis Research Information System (CCRIS), 2018).
The source made the active and inactive calls. How the calls were made is not given here.

System: CCRIS mutagenicity, Ames/micronucleus/aberration tests
Test: CCRIS mutagenicity studies
[1] = Test System: AMES SALMONELLA TYPHIMURIUM, Strain/Indicator: TA98, Metabolic Activation: NONE, Method: PREINCUBATION
[2] = Test System: AMES SALMONELLA TYPHIMURIUM, Strain/Indicator: TA98, Metabolic Activation: NONE, Method: STANDARD PLATE
[3] = Test System: AMES SALMONELLA TYPHIMURIUM, Strain/Indicator: TA98, Metabolic Activation: RAT, LIVER, S-9, AROCLOR 1254, Method: STANDARD PLATE
[4] = Test System: AMES SALMONELLA TYPHIMURIUM, Strain/Indicator: TA100, Metabolic Activation: NONE, Method: PREINCUBATION
[5] = Test System: AMES SALMONELLA TYPHIMURIUM, Strain/Indicator: TA100, Metabolic Activation: NONE, Method: STANDARD PLATE
[6] = Test System: AMES SALMONELLA TYPHIMURIUM, Strain/Indicator: TA100, Metabolic Activation: RAT, LIVER, S-9, AROCLOR 1254, Method: STANDARD PLATE
[7] = Test System: AMES SALMONELLA TYPHIMURIUM, Strain/Indicator: TA102, Metabolic Activation: NONE, Method: STANDARD PLATE
[8] = Test System: AMES SALMONELLA TYPHIMURIUM, Strain/Indicator: TA102, Metabolic Activation: RAT, LIVER, S-9, AROCLOR 1254, Method: STANDARD PLATE
[9] = Test System: MOUSE LYMPHOMA, Strain/Indicator: L5178Y (TK+/TK-), Metabolic Activation: NONE, Method: SUSPENSION/PLATE
[10] = Test System: MOUSE LYMPHOMA, Strain/Indicator: L5178Y (TK+/TK-), Metabolic Activation: RAT, LIVER, S-9, AROCLOR 1254, Method: SUSPENSION/PLATE

`ClC1=C(Cl)[C@]2(Cl)[C@@H]3[C@H]4C[C@H]([C@@H]5O[C@H]45)[C@@H]3[C@@]1(Cl)C2(Cl)Cl` was tested, and the mutagenic call (Test System: AMES SALMONELLA TYPHIMURIUM, Strain/Indicator: TA97, Metabolic Activation: NONE, Method: STANDARD PLATE) was “inactive; negative”, the mutagenic call (Test System: AMES SALMONELLA TYPHIMURIUM, Strain/Indicator: TA97, Metabolic Activation: RAT, LIVER, S-9, AROCLOR 1254, Method: STANDARD PLATE) was “inactive; negative” and the mutagenic call (Test System: AMES SALMONELLA TYPHIMURIUM, Strain/Indicator: TA98, Metabolic Activation: HAMSTER, LIVER, S-9, AROCLOR 1254 (10%), Method: PREINCUBATION) was “inactive; negative”. The mutagenic call [1] was “inactive; negative”, the mutagenic call [2] was “inactive; negative” and the mutagenic call (Test System: AMES SALMONELLA TYPHIMURIUM, Strain/Indicator: TA98, Metabolic Activation: RAT, LIVER, S-9, AROCLOR 1254 (10%), Method: PREINCUBATION) was “inactive; negative”. The mutagenic call [3] was “inactive; negative”, the mutagenic call (Test System: AMES SALMONELLA TYPHIMURIUM, Strain/Indicator: TA100, Metabolic Activation: HAMSTER, LIVER, S-9, AROCLOR 1254 (10%), Method: PREINCUBATION) was “inactive; negative” and the mutagenic call [4] was “inactive; negative”. The mutagenic call [5] was “inactive; negative”, the mutagenic call (Test System: AMES SALMONELLA TYPHIMURIUM, Strain/Indicator: TA100, Metabolic Activation: RAT, LIVER, S-9, AROCLOR 1254 (10%), Method: PREINCUBATION) was “inactive; negative” and the mutagenic call [6] was “inactive; negative”. For the same compound, the mutagenic call [7] was “inactive; negative”, the mutagenic call [8] was “inactive; negative” and the mutagenic call (Test System: AMES SALMONELLA TYPHIMURIUM, Strain/Indicator: TA1535, Metabolic Activation: HAMSTER, LIVER, S-9, AROCLOR 1254 (10%), Method: PREINCUBATION) was “inactive; negative”. For the same compound, the mutagenic call (Test System: AMES SALMONELLA TYPHIMURIUM, Strain/Indicator: TA1535, Metabolic Activation: NONE, Method: PREINCUBATION) was “inactive; negative”, the mutagenic call (Test System: AMES SALMONELLA TYPHIMURIUM, Strain/Indicator: TA1535, Metabolic Activation: RAT, LIVER, S-9, AROCLOR 1254 (10%), Method: PREINCUBATION) was “inactive; negative” and the mutagenic call (Test System: AMES SALMONELLA TYPHIMURIUM, Strain/Indicator: TA1537, Metabolic Activation: HAMSTER, LIVER, S-9, AROCLOR 1254 (10%), Method: PREINCUBATION) was “inactive; negative”. For the same compound, the mutagenic call (Test System: AMES SALMONELLA TYPHIMURIUM, Strain/Indicator: TA1537, Metabolic Activation: NONE, Method: PREINCUBATION) was “inactive; negative”, the mutagenic call (Test System: AMES SALMONELLA TYPHIMURIUM, Strain/Indicator: TA1537, Metabolic Activation: RAT, LIVER, S-9, AROCLOR 1254 (10%), Method: PREINCUBATION) was “inactive; negative” and the mutagenic call [9] was “inactive; negative”. The mutagenic call [10] was “inactive; negative”.

In the case of `CC(C)NCC(O)COc1cccc2c1C=CC2` (centres undefined), the mutagenic call [2] is reported as “inactive; negative”, the mutagenic call [3] is reported as “inactive; negative” and the mutagenic call [5] is reported as “inactive; negative”. For the same compound, the mutagenic call [6] was “inactive; negative”, the mutagenic call [7] was “inactive; negative” and the mutagenic call [8] was “inactive; negative”.

For `CCCOS(C)(=O)=O`, the mutagenic call (End Point: IN VITRO MICRONUCLEUS, Test System: MOUSE LYMPHOMA L5178Y CELLS, Metabolic Activation: NONE) was “active; positive”, the mutagenic call (End Point: IN VITRO MICRONUCLEUS, Test System: MOUSE LYMPHOMA L5178Y CELLS, Metabolic Activation: RAT, LIVER, S-9) was “inactive; negative; authors report results as weakly positive” and the mutagenic call (End Point: In vitro micronucleus, Test System: Chinese Hamster Ovary (CHO-WBL) cells, Metabolic Activation: None) was “active; positive (p<0.01)”. For the same compound, the mutagenic call [5] was “active; positive” and the mutagenic call (Test System: AMES SALMONELLA TYPHIMURIUM, Strain/Indicator: TA100, Metabolic Activation: RAT, LIVER, S-9, Method: STANDARD PLATE) was “active; positive”.

`COc1cc2c(c(OC)c1CO)C(=O)c1ccccc1C2=O` was tested, and the mutagenic call [1] was “inactive; negative”, the mutagenic call (Test System: AMES SALMONELLA TYPHIMURIUM, Strain/Indicator: TA98, Metabolic Activation: RAT, LIVER, S-9, PCB, Method: PREINCUBATION) was “inactive; negative” and the mutagenic call [4] was “inactive; negative”. For the same compound, the mutagenic call (Test System: AMES SALMONELLA TYPHIMURIUM, Strain/Indicator: TA100, Metabolic Activation: RAT, LIVER, S-9, PCB, Method: PREINCUBATION) was “inactive; negative”.

For `COc1nsc2c(OCC3CO3)cccc12` (centres undefined), the mutagenic call [5] was “active; positive”.

`CC(C)(C)NC[C@H](O)COc1ccccc1C1CCCC1` was tested, and the mutagenic call [2] was “active; positive”, the mutagenic call [3] was “inactive; negative” and the mutagenic call [5] was “inactive; negative”. For the same compound, the mutagenic call [6] was “inactive; negative”, the mutagenic call [7] was “inactive; negative” and the mutagenic call [8] was “inactive; negative”.

With `O=C(CC(O)C(=O)OCCBr)OCCBr` (centres undefined) the mutagenic call [2] was “inactive; negative”, the mutagenic call [5] was “inactive; negative” and the mutagenic call [6] was “active; positive”.

`O=c1c(O)c(O)c1=O` was tested, and the mutagenic call (Test System: AMES SALMONELLA TYPHIMURIUM, Strain/Indicator: TA98, Metabolic Activation: HAMSTER, LIVER, S-9, AROCLOR 1254, Method: STANDARD PLATE) was “inactive; negative”, the mutagenic call [2] was “inactive; negative” and the mutagenic call [3] was “inactive; negative”. For the same compound, the mutagenic call (Test System: AMES SALMONELLA TYPHIMURIUM, Strain/Indicator: TA100, Metabolic Activation: HAMSTER, LIVER, S-9, AROCLOR 1254, Method: STANDARD PLATE) was “inactive; negative”, the mutagenic call [5] was “inactive; negative” and the mutagenic call [6] was “inactive; negative”. For the same compound, the mutagenic call (Test System: AMES SALMONELLA TYPHIMURIUM, Strain/Indicator: TA1535, Metabolic Activation: HAMSTER, LIVER, S-9, AROCLOR 1254, Method: STANDARD PLATE) was “inactive; negative”, the mutagenic call (Test System: AMES SALMONELLA TYPHIMURIUM, Strain/Indicator: TA1535, Metabolic Activation: NONE, Method: STANDARD PLATE) was “inactive; negative” and the mutagenic call (Test System: AMES SALMONELLA TYPHIMURIUM, Strain/Indicator: TA1535, Metabolic Activation: RAT, LIVER, S-9, AROCLOR 1254, Method: STANDARD PLATE) was “inactive; negative”. For the same compound, the mutagenic call (Test System: AMES SALMONELLA TYPHIMURIUM, Strain/Indicator: TA1537, Metabolic Activation: HAMSTER, LIVER, S-9, AROCLOR 1254, Method: STANDARD PLATE) was “inactive; negative”, the mutagenic call (Test System: AMES SALMONELLA TYPHIMURIUM, Strain/Indicator: TA1537, Metabolic Activation: NONE, Method: STANDARD PLATE) was “inactive; negative” and the mutagenic call (Test System: AMES SALMONELLA TYPHIMURIUM, Strain/Indicator: TA1537, Metabolic Activation: RAT, LIVER, S-9, AROCLOR 1254, Method: STANDARD PLATE) was “inactive; negative”. The mutagenic call (Test System: AMES SALMONELLA TYPHIMURIUM, Strain/Indicator: TA1538, Metabolic Activation: HAMSTER, LIVER, S-9, AROCLOR 1254, Method: STANDARD PLATE) was “inactive; negative”, the mutagenic call (Test System: AMES SALMONELLA TYPHIMURIUM, Strain/Indicator: TA1538, Metabolic Activation: NONE, Method: STANDARD PLATE) was “inactive; negative” and the mutagenic call (Test System: AMES SALMONELLA TYPHIMURIUM, Strain/Indicator: TA1538, Metabolic Activation: RAT, LIVER, S-9, AROCLOR 1254, Method: STANDARD PLATE) was “inactive; negative”. The mutagenic call [9] was “inactive; negative. reevaluation of results: negative” and the mutagenic call [10] was “inactive; negative. reevaluation of results: negative”.
